# Source: patent US12343326B2, “Psychoactive medicines and their use for treating psychiatric and neurological conditions and disorders” (Transcend Therapeutics, Inc., priority 2021, dated 2025)
# Assays:
# Test in all cases: β-arrestin based GPCR screen (PathHunter / GPCRmax), agonist mode
# Assay type in all cases: cell-based
# Design in all cases: host or cells: PathHunter cell lines
# [1] = molecular target: 168 GPCRs (Homo sapiens, UniProt Q9P296); conditions: C5L2, Agonist
# Experimental: (§1) For agonist determination, cells were incubated with sample to induce response. […] Vehicle concentration was 1%.
# [2] = molecular target: 168 GPCRs (Homo sapiens, UniProt Q92847); conditions: GHSR
# Experimental: as §1
# [3] = molecular target: 168 GPCRs (Homo sapiens, UniProt Q9HC97)
# Experimental: as §1
# [4] = molecular target: 168 GPCRs (Homo sapiens, UniProt P41143)
# Experimental: as §1
# [5] = molecular target: 168 GPCRs (Homo sapiens, UniProt Q9UBY5)
# Experimental: as §1
# [6] = molecular target: 168 GPCRs (Homo sapiens, UniProt P16473); conditions: TSHR(L)
# Experimental: as §1
# [7] = molecular target: 168 GPCRs (Homo sapiens, UniProt P46663); conditions: BDKRB1, Agonist
# Experimental: as §1
# [8] = molecular target: 168 GPCRs (Homo sapiens, UniProt Q03431)
# Experimental: as §1
# [9] = molecular target: 168 GPCRs (Homo sapiens, UniProt Q15722); conditions: LTB4R
# Experimental: as §1
# [10] = molecular target: 168 GPCRs (Homo sapiens, UniProt P35372)
# Experimental: as §1
# [11] = molecular target: 168 GPCRs (Homo sapiens, UniProt P32246); conditions: CCR1, Agonist
# Experimental: as §1
# [12] = molecular target: 168 GPCRs (Homo sapiens, UniProt P21730); conditions: C5AR1, Agonist
# Experimental: as §1
# [13] = molecular target: 168 GPCRs (Homo sapiens, UniProt P21554)
# Experimental: as §1
# [14] = molecular target: 168 GPCRs (Homo sapiens, UniProt P28566); conditions: HTR1E
# Experimental: as §1
# [15] = molecular target: 168 GPCRs (Homo sapiens, UniProt P08908); conditions: HTR1A
# Experimental: as §1
# [16] = molecular target: T1, 168 GPCRs (Homo sapiens, UniProt Q5NUL3)
# T1 sequence (Q5NUL3 1-361): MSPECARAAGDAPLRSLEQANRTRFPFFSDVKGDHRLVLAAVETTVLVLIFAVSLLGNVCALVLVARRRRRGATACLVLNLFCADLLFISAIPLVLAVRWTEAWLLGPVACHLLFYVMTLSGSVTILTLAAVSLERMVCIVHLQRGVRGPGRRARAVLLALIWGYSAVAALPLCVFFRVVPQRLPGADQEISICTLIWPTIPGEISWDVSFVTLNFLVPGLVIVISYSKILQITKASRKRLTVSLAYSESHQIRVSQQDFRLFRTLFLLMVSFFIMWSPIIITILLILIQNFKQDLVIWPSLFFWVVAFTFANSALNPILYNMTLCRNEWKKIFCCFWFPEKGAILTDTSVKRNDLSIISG
# Experimental: as §1
# [17] = molecular target: T2, 168 GPCRs (Homo sapiens, UniProt P0DMS8); conditions: ADORA3, Agonist
# T2 sequence (P0DMS8 1-318): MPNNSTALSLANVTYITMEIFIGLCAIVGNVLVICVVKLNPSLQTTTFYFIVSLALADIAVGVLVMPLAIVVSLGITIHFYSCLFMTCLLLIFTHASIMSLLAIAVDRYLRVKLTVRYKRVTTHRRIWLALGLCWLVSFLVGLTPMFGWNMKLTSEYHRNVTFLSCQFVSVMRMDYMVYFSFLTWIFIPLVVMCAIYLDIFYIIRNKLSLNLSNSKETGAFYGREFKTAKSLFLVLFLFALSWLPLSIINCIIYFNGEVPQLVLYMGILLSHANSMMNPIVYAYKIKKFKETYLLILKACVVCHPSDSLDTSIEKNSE
# Experimental: as §1
# [18] = molecular target: 168 GPCRs (Homo sapiens, UniProt P51679); conditions: CCR4, Agonist
# Experimental: as §1
# Chain of 168 GPCRs (Homo sapiens, UniProt P32246) (P32246 whole entry): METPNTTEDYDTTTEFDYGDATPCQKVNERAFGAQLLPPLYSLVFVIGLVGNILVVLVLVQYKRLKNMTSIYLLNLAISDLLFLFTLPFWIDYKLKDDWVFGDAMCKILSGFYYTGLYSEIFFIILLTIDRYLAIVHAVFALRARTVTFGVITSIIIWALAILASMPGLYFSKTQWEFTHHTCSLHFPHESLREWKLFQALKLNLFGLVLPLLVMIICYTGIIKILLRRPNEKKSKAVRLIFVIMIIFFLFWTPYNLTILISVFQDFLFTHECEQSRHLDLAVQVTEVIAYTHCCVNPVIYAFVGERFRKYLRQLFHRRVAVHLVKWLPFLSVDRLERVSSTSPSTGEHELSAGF
# Chain of 168 GPCRs (Homo sapiens, UniProt P41143) (P41143 whole entry): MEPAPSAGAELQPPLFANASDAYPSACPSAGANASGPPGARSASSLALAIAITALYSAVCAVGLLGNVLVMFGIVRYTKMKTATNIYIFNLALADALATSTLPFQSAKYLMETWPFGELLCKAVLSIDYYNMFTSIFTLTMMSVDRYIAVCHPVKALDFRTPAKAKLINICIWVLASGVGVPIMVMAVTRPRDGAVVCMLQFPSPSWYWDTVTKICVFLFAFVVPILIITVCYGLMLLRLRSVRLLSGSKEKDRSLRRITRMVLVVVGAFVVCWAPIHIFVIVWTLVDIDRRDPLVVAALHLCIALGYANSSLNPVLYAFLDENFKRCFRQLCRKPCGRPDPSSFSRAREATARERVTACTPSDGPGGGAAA
# Chain of 168 GPCRs (Homo sapiens, UniProt P46663) (P46663 whole entry): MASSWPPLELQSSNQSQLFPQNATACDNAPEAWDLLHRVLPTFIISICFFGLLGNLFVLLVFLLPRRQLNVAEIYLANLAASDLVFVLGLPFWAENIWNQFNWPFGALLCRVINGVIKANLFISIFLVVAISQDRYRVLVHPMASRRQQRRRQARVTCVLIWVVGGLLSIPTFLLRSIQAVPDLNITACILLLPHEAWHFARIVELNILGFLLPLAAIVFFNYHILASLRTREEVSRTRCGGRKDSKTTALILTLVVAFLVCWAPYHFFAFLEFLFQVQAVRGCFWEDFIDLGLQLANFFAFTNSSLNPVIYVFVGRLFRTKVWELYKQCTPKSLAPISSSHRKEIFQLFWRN
# Chain of 168 GPCRs (Homo sapiens, UniProt Q9HC97) (Q9HC97 whole entry): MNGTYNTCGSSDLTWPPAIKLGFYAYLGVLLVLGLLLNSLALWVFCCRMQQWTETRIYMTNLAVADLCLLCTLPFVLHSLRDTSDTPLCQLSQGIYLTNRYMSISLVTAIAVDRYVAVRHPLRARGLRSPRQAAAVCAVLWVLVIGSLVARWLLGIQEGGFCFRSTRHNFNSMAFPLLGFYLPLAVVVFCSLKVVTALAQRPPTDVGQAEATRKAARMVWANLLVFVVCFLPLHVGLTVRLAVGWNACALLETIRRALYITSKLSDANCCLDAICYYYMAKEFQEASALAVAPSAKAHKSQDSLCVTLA
# Chain of 168 GPCRs (Homo sapiens, UniProt Q15722) (Q15722 whole entry): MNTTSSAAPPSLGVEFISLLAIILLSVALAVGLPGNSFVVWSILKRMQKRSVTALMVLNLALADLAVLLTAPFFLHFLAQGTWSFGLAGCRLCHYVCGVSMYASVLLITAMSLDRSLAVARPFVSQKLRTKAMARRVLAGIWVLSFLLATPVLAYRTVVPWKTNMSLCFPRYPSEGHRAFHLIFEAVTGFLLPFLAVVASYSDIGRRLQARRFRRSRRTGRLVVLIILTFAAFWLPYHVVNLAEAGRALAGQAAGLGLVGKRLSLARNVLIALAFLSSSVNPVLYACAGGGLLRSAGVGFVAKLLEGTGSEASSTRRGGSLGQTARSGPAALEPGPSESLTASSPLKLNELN
# Chain of 168 GPCRs (Homo sapiens, UniProt Q9UBY5) (Q9UBY5 whole entry): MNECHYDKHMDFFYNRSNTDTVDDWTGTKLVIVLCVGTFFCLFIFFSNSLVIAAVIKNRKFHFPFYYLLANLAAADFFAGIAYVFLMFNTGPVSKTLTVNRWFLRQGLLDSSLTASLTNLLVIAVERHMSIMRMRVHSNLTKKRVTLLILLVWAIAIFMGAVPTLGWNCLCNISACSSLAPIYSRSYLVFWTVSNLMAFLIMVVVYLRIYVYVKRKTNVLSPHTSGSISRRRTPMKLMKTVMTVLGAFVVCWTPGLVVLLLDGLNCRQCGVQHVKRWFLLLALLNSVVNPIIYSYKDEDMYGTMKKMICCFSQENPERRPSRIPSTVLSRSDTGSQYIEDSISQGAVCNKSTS
# Chain of 168 GPCRs (Homo sapiens, UniProt Q9P296) (Q9P296 whole entry): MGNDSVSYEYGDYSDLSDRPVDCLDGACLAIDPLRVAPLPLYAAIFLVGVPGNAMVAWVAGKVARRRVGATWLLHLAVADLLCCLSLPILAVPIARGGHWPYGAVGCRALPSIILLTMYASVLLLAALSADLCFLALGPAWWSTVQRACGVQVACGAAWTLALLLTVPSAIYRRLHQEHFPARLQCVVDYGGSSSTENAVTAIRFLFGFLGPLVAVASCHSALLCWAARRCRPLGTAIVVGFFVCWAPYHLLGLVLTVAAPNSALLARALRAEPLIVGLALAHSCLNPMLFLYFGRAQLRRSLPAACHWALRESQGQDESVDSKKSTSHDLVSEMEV
# Chain of 168 GPCRs (Homo sapiens, UniProt Q92847) (Q92847 whole entry): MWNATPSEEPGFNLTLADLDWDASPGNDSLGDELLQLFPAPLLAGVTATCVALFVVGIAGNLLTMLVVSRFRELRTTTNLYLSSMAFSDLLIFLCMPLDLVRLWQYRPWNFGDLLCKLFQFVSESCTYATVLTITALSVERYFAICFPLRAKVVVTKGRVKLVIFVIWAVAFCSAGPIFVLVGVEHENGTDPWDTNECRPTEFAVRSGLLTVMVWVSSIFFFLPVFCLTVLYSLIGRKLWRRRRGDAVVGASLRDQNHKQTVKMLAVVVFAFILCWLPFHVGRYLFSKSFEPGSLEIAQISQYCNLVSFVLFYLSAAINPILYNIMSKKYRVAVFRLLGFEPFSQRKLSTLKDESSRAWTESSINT
# Chain of 168 GPCRs (Homo sapiens, UniProt Q03431) (Q03431 27-593): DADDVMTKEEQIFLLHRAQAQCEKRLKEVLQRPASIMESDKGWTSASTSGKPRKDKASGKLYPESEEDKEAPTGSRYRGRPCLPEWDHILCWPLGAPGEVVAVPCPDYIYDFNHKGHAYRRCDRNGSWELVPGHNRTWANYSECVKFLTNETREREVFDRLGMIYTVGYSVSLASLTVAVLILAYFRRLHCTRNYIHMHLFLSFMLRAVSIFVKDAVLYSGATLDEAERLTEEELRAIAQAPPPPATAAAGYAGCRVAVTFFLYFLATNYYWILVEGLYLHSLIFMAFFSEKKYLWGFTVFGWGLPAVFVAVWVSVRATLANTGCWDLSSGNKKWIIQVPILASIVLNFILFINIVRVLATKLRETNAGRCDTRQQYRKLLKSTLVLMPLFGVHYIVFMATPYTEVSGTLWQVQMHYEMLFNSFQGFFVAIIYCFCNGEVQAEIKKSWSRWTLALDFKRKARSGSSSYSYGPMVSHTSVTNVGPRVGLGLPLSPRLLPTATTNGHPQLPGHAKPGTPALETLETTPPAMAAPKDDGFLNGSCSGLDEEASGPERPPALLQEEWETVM
# Chain of 168 GPCRs (Homo sapiens, UniProt P28566) (P28566 whole entry): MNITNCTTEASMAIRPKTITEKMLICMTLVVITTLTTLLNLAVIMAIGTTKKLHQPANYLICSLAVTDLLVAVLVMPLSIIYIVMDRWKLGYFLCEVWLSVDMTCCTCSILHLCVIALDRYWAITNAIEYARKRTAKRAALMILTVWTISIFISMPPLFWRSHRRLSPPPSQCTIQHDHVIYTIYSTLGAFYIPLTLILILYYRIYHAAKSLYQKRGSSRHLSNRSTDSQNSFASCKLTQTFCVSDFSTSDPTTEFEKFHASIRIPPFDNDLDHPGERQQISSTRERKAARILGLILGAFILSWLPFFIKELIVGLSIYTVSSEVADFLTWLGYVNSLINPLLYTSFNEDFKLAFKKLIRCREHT
# Chain of 168 GPCRs (Homo sapiens, UniProt P35372) (P35372 whole entry): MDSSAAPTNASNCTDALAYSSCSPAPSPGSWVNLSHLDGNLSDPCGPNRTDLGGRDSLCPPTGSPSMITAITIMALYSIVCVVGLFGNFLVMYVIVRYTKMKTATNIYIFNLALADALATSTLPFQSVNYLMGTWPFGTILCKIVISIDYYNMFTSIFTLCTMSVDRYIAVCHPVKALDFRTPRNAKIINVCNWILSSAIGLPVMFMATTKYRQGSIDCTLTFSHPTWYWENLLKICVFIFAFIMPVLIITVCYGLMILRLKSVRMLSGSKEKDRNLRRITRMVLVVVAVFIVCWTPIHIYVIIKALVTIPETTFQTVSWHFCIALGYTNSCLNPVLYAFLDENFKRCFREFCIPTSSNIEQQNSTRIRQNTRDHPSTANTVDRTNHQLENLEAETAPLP
# Chain of 168 GPCRs (Homo sapiens, UniProt P21554) (P21554 whole entry): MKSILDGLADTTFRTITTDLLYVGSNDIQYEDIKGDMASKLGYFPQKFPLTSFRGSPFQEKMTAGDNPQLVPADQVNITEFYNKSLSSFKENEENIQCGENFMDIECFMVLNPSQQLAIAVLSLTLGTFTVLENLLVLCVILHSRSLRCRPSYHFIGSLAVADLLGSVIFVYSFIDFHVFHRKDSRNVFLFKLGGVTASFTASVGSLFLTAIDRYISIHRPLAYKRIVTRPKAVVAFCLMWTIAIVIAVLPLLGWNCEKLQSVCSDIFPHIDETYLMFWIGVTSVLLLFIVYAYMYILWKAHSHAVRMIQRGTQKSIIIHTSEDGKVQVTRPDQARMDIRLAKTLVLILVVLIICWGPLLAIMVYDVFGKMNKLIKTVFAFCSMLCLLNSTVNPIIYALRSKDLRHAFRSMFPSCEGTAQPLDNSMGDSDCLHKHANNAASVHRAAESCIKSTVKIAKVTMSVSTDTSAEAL
smiles,measurement,setting,value
"CNC(C)C(=O)c1ccc2c(c1)OCO2 (stereo not drawn) [methylone, 3,4-methylenedioxy-N-methylcathinone]",activity at 1 µM,[1]; 1 uM,8.4%
same,activity at 10 µM,[1]; 10 uM,12.9%
same,activity at 10 µM,"[2]; Agonist mode, 10 uM",-7.2%
same,activity at 1 µM,"[2]; Agonist, 1 uM",-6.6%
same,activity at 10 µM,"[3]; GPR35, Agonist mode, 10 uM",2.5%
same,activity at 1 µM,"[3]; GPR35, Agonist, 1 uM",2.2%
same,activity at 10 µM,"[4]; OPRD1, Agonist mode, 10 uM",-1.5%
same,activity at 1 µM,"[4]; OPRD1, Agonist, 1 uM",-2%
same,activity at 10 µM,"[5]; EDG7, Agonist mode, 10 uM",1.1%
same,activity at 1 µM,"[5]; EDG7, Agonist, 1 uM",3%
same,activity at 10 µM,"[6]; Agonist mode, 10 uM",0.7%
same,activity at 1 µM,"[6]; Agonist, 1 uM",-1.2%
same,activity at 1 µM,[7]; 1 uM,-1.7%
same,activity at 10 µM,[7]; 10 uM,-2.5%
same,activity at 10 µM,"[8]; PTHR1, Agonist mode, 10 uM",0.1%
same,activity at 1 µM,"[8]; PTHR1, Agonist, 1 uM",0%
same,activity at 10 µM,"[9]; Agonist mode, 10 uM",-0.8%
same,activity at 1 µM,"[9]; Agonist, 1 uM",-0.3%
same,activity at 10 µM,"[10]; OPRM1, OPRM1, Agonist mode, 10 uM",0.5%
same,activity at 1 µM,"[10]; OPRM1, OPRM1, Agonist, 1 uM",0.2%
same,activity at 1 µM,[11]; 1 uM,-2.6%
same,activity at 10 µM,[11]; 10 uM,3.6%
same,activity at 1 µM,[12]; 1 uM,-1%
same,activity at 10 µM,[12]; 10 uM,-1.3%
same,activity at 10 µM,"[13]; CNR1, Agonist mode, 10 uM",-2.7%
same,activity at 1 µM,"[13]; CNR1, Agonist, 1 uM",-0.4%
same,activity at 10 µM,"[14]; Agonist mode, 10 uM",0.2%
same,activity at 1 µM,"[14]; Agonist, 1 uM",-3.5%
same,activity at 10 µM,"[15]; Agonist mode, 10 uM",-0.1%
same,activity at 1 µM,"[15]; Agonist, 1 uM",0.8%
same,activity at 10 µM,"[16]; GPR120, Agonist mode, 10 uM",-5.8%
same,activity at 1 µM,"[16]; GPR120, Agonist, 1 uM",-5.1%
same,activity at 1 µM,[17]; 1 uM,-4.5%
same,activity at 10 µM,[17]; 10 uM,-5.3%
same,activity at 1 µM,[18]; 1 uM,-0.5%
same,activity at 10 µM,[18]; 10 uM,1.4%
